{"source": "patent US4332818A", "about": "“1,4;3,6-Dianhydro-2,5-diazido-2,5-dideoxy-hexitols” (priority 1980, dated 1982)", "key": {"mice [1]": {"system": "mice", "experiment": "HD50 (hypnotic dose) on mice", "type": "in vivo", "settings": "Mus musculus, HD = hypnotic dose", "text": "(§1) The activity of the compounds of the Formula I has been tested and compared to that of Glutethimid in various tests. As test compound 1,4;3,6-dianhydro-2,5-diazido-2,5-dideoxy-L-mannitol is used.\n(§2) In Table I the LD50 and HD50 values measured on mice are disclosed (HD=hypnotic dose). Table II contains the minimal hypnotic doses measured on various animals (HDmin), while in Table III the results of various CNS tests on mice are summarized."}, "mice [2]": {"system": "mice", "experiment": "CNS test: Rotating rod", "type": "in vivo", "settings": "Mus musculus, ip", "text": "as §1, §2"}, "Cat": {"system": "Cat", "experiment": "Minimal hypnotic dose (HDmin), cat", "type": "in vivo", "settings": "Felis catus, ip", "text": "as §1, §2"}, "mice [3]": {"system": "mice", "experiment": "CNS test: Narcosis potentiating", "type": "in vivo", "settings": "Mus musculus, po", "text": "as §1, §2"}, "Rat": {"system": "Rat", "experiment": "Minimal hypnotic dose (HDmin), rat", "type": "in vivo", "settings": "ip", "text": "as §1, §2"}, "mice [4]": {"system": "mice", "experiment": "CNS test: Motility", "type": "in vivo", "settings": "Mus musculus, po", "text": "as §1, §2"}, "in vivo": {"experiment": "in vivo", "settings": "mouse, mice", "text": "as §1, §2"}, "Mouse": {"system": "Mouse", "experiment": "Minimal hypnotic dose (HDmin), mouse", "type": "in vivo", "settings": "ip", "text": "as §1, §2"}, "Rabbit": {"system": "Rabbit", "experiment": "Minimal hypnotic dose (HDmin), rabbit", "type": "in vivo", "settings": "Oryctolagus cuniculus, ip", "text": "as §1, §2"}, "mice [5]": {"system": "mice", "experiment": "CNS test: Tranquillizing effect (fighting test)", "type": "in vivo", "settings": "Mus musculus, po", "text": "as §1, §2"}}, "data": [{"smiles": "CCC1(c2ccccc2)CCC(=O)NC1=O", "note": "(stereo not drawn) [Glutethimid, 3-ethyl-3-phenyl-2,6-dioxo-piperidine]", "values": [{"measurement": "ED50", "setting": "mice [1]; ip", "value": 135, "unit": "mg/kg"}, {"measurement": "ED50", "setting": "mice [1]; po", "value": 200, "unit": "mg/kg"}, {"measurement": "ED50", "setting": "mice [2]", "value": 70, "unit": "mg/kg"}, {"measurement": "minimal effective dose", "setting": "Cat", "value": 125, "unit": "mg/kg"}, {"measurement": "ED100", "setting": "mice [3]", "value": 30, "unit": "mg/kg"}, {"measurement": "minimal effective dose", "setting": "Rat", "value": 100, "unit": "mg/kg"}, {"measurement": "ED50", "setting": "mice [4]", "value": 135, "unit": "mg/kg"}, {"measurement": "LD50", "setting": "in vivo; ip", "value": 305, "unit": "mg/kg"}, {"measurement": "LD50", "setting": "in vivo; po", "value": 580, "unit": "mg/kg"}, {"measurement": "minimal effective dose", "setting": "Mouse", "value": 100, "unit": "mg/kg"}, {"measurement": "minimal effective dose", "setting": "Rabbit", "value": 175, "unit": "mg/kg"}, {"measurement": "ED50", "setting": "mice [5]", "value": 40, "unit": "mg/kg"}]}]}
